Data published in paper PMC8617627, “Novel DYRK1A Inhibitor Rescues Learning and Memory Deficits in a Mouse Model of Down Syndrome” (Pharmaceuticals, 2021).
Where two headings read alike, the source gives them in different places.

Experiments:
Assay in all cases: Kinase profile (33P ATP filter binding)
Format in all cases: biochemical
[1] = biological target: CK1δ (Homo sapiens, UniProt P48730); details: read-out: Remaining protein kinase activity
[2] = biological target: HER4 (Homo sapiens, UniProt Q15303); details: read-out: Remaining protein kinase activity
[3] = biological target: p38a MAPK (Homo sapiens, UniProt Q16539)
[4] = biological target: SRPK1 (Homo sapiens, UniProt Q96SB4); details: read-out: Remaining protein kinase activity
Chain of SRPK1 (Q96SB4 whole entry): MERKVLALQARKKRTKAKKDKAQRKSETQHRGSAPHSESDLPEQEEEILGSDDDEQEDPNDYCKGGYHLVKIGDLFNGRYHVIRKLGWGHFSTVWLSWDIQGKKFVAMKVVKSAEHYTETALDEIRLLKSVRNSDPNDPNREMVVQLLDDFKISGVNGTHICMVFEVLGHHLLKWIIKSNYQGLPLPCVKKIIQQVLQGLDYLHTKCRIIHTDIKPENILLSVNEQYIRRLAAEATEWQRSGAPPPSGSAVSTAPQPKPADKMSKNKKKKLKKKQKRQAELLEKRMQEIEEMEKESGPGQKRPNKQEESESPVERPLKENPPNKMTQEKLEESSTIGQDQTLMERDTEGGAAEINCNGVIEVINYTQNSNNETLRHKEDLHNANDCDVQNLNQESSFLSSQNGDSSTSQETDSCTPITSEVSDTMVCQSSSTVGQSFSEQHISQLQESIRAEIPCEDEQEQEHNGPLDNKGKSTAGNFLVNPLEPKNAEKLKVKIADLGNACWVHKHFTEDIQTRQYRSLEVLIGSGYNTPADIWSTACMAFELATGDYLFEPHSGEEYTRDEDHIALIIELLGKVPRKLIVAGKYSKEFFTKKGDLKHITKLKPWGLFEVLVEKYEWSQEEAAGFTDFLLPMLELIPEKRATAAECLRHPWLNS

[5] = biological target: MAPKAP-K3 (Homo sapiens, UniProt Q16644); details: read-out: Remaining protein kinase activity
Chain of MAPKAP-K3 (Q16644 whole entry): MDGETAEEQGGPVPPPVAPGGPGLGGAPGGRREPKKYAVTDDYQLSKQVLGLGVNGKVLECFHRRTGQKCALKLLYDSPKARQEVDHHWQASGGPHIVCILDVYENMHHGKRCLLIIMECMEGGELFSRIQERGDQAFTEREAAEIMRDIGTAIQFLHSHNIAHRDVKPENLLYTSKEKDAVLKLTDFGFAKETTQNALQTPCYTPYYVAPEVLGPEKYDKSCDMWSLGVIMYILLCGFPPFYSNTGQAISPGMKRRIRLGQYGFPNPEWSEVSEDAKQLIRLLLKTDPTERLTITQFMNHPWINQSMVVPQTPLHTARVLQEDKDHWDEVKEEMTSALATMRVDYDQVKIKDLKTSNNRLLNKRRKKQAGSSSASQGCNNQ

[6] = biological target: TTBK2 (Homo sapiens, UniProt Q6IQ55)
[7] = biological target: MAPKAP-K2 (Homo sapiens, UniProt P49137); details: read-out: Remaining protein kinase activity
Chain of MAPKAP-K2 (P49137 whole entry): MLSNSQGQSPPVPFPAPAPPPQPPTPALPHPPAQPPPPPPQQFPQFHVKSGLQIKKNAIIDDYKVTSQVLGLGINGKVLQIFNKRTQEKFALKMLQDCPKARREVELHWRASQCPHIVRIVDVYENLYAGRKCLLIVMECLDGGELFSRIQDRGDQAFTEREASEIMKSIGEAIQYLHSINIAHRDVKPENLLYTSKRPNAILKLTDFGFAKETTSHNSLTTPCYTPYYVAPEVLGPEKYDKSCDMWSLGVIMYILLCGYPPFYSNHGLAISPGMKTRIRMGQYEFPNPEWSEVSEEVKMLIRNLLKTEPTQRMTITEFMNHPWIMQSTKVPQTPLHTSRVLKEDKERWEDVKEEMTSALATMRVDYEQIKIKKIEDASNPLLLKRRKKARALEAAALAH

[8] = biological target: MST4 (Homo sapiens, UniProt Q9P289); details: read-out: Remaining protein kinase activity
[9] = biological target: HIPK3 (Homo sapiens, UniProt Q9H422); details: read-out: Remaining protein kinase activity
[10] = biological target: ERK5 (Homo sapiens, UniProt Q13164); details: read-out: Remaining protein kinase activity
Chain of ERK5 (Q13164 whole entry, species assumed): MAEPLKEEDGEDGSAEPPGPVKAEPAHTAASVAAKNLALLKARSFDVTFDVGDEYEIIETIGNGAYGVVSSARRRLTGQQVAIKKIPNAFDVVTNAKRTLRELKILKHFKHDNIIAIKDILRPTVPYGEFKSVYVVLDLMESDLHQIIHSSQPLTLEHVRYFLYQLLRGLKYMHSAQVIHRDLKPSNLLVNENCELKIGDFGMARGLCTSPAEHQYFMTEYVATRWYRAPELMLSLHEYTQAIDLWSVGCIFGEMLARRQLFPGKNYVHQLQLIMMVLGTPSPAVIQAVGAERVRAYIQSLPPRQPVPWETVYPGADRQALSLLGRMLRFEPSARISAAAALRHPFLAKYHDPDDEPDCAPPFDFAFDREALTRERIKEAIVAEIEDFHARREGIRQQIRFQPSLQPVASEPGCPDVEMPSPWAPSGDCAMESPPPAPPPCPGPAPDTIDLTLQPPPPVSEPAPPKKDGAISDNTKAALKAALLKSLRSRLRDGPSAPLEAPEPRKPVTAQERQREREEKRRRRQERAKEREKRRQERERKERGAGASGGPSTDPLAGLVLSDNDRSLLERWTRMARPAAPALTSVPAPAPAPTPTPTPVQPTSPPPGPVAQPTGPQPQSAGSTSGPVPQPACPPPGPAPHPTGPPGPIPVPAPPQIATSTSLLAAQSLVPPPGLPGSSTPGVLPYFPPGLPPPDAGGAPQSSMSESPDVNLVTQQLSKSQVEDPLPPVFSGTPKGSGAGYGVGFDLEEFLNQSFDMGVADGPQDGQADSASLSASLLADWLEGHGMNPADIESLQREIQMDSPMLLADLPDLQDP

[11] = biological target: PKA (Homo sapiens, UniProt P17612); details: read-out: Remaining protein kinase activity
[12] = biological target: MELK (Homo sapiens, UniProt Q14680); details: read-out: Remaining protein kinase activity
Chain of MELK (Q14680 whole entry): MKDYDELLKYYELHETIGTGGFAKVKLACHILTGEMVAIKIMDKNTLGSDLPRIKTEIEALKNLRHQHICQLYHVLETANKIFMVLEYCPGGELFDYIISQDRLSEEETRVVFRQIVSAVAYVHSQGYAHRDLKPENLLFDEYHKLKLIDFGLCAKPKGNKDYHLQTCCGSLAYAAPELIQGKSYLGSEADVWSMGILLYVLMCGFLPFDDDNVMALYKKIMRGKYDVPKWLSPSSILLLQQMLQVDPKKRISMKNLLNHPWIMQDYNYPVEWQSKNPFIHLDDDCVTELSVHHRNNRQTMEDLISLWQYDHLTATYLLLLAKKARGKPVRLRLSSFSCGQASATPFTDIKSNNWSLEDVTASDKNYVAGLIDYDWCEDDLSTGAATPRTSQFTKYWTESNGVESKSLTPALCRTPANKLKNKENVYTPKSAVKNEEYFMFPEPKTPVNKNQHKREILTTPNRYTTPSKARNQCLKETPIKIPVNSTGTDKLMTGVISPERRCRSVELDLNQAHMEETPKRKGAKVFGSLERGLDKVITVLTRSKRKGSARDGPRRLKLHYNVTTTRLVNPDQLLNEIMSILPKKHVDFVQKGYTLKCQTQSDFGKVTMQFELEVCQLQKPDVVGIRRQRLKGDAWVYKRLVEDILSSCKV

[13] = biological target: MARK3 (Homo sapiens, UniProt P27448); details: read-out: Remaining protein kinase activity
Chain of MARK3 (P27448 whole entry): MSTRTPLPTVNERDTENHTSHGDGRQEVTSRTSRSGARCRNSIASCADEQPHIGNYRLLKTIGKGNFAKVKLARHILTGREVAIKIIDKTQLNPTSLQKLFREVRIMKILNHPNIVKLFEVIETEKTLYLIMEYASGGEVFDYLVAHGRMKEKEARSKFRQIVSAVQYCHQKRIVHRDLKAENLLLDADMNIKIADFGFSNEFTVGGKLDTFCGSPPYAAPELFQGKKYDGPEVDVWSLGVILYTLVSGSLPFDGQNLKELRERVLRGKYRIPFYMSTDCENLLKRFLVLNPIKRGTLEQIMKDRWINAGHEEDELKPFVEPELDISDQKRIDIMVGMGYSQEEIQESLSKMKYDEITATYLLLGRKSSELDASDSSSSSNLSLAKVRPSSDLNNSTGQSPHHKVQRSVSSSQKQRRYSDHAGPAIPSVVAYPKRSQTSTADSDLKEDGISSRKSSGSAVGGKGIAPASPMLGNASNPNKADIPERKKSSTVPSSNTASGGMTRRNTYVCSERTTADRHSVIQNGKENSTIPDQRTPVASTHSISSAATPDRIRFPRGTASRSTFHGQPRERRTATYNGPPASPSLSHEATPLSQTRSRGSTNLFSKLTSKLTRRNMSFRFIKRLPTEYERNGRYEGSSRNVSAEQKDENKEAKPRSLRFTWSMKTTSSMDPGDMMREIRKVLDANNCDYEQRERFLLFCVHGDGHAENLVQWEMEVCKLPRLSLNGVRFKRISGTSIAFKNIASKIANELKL

[14] = biological target: MARK2 (Homo sapiens, UniProt Q7KZI7); details: read-out: Remaining protein kinase activity
Chain of MARK2 (Q7KZI7 whole entry): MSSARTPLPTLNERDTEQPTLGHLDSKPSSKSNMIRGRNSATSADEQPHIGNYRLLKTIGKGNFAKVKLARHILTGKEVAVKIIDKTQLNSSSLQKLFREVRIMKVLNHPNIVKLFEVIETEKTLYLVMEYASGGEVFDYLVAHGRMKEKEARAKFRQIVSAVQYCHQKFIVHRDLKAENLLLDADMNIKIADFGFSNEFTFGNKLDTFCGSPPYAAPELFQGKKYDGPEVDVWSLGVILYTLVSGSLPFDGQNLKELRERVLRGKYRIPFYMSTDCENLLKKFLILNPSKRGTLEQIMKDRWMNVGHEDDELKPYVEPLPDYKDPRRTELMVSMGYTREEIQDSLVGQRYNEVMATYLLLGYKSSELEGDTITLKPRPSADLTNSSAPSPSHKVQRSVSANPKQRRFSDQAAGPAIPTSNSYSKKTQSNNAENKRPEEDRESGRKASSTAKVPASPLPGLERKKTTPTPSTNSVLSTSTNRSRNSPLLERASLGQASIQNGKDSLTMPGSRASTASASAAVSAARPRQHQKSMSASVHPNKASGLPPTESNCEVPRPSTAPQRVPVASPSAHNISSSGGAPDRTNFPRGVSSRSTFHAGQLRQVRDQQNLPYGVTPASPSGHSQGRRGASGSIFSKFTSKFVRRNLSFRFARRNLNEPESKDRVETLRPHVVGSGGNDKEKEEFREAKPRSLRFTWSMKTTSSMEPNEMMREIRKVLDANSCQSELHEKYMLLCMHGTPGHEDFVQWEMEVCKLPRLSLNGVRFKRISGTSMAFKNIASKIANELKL

[15] = biological target: T1, SGK1 (Homo sapiens, UniProt O00141); details: read-out: Remaining protein kinase activity
T1 sequence (O00141 1-431): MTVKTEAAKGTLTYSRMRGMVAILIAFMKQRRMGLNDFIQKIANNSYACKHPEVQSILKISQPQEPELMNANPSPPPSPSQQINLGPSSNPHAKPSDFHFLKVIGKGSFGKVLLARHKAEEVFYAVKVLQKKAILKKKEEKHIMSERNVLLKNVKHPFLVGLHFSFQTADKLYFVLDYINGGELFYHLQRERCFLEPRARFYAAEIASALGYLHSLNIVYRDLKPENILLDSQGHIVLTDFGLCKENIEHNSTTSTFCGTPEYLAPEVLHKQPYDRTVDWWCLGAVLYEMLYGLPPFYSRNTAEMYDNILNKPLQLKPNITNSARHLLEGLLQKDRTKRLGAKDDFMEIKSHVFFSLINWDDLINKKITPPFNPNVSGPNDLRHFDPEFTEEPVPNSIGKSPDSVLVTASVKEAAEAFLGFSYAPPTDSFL

[16] = biological target: SYK (Homo sapiens, UniProt P43405)
[17] = biological target: T2, BRSK2 (Homo sapiens, UniProt Q8IWQ3); details: read-out: Remaining protein kinase activity
T2 sequence (Q8IWQ3 1-736): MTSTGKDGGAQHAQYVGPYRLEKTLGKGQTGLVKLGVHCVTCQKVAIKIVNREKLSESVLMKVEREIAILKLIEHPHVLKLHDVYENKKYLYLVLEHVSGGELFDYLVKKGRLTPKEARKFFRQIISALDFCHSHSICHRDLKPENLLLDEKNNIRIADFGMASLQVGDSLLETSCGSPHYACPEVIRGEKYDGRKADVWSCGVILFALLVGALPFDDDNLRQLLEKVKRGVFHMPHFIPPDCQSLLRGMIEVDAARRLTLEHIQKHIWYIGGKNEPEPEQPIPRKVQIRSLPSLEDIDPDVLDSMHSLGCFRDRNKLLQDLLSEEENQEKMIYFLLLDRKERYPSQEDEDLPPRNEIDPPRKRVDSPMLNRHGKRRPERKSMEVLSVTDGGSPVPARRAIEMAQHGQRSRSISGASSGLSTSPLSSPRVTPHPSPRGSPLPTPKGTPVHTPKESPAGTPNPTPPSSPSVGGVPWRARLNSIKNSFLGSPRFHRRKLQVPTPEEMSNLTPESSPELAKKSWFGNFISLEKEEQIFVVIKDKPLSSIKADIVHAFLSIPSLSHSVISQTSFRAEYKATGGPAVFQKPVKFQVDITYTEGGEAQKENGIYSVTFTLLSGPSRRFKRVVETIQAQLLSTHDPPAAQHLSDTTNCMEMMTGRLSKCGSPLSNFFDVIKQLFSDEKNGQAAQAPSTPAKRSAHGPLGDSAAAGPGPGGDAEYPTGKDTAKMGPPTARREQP

Chain of CK1δ (P48730 whole entry): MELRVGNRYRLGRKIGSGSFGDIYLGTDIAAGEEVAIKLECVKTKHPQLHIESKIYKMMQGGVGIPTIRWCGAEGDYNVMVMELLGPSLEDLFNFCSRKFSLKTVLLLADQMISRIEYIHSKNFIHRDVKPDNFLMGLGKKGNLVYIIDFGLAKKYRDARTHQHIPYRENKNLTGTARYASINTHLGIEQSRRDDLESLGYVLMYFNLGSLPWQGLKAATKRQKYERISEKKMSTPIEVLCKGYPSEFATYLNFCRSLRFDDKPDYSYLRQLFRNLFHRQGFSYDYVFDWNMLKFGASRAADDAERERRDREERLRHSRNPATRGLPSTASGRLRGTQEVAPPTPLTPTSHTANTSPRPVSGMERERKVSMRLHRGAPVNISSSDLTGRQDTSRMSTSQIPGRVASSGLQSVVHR

COc1ccc2sc(-c3cncc(NC(C)=O)c3)nc2c1 [PST-001, N-(5-(5-Methoxybenzo[d]thiazol-2-yl)pyridin-3-yl)acetamide]
remaining activity at 1 µM [1]: 99% | remaining activity at 100 µM [1]: 59% | remaining activity at 1 µM [2]: 103% | remaining activity at 100 µM [2]: 94% | Remaining protein kinase activity ([3]; 1 μM): 110% | Remaining protein kinase activity ([3]; 100 μM): 106% | remaining activity at 1 µM [4]: 115% | remaining activity at 100 µM [4]: 108% | remaining activity at 1 µM [5]: 115% | remaining activity at 100 µM [5]: 113% | Remaining protein kinase activity ([6]; 1 μM): 119% | Remaining protein kinase activity ([6]; 100 μM): 117% | remaining activity at 1 µM [7]: 109% | remaining activity at 100 µM [7]: 111% | remaining activity at 1 µM [8]: 112% | remaining activity at 100 µM [8]: 113% | remaining activity at 1 µM [9]: 123% | remaining activity at 100 µM [9]: 100% | remaining activity at 1 µM [10]: 72% | remaining activity at 100 µM [10]: 51% | remaining activity at 1 µM [11]: 88% | remaining activity at 100 µM [11]: 88% | remaining activity at 1 µM [12]: 99% | remaining activity at 100 µM [12]: 44% | remaining activity at 1 µM [13]: 99% | remaining activity at 100 µM [13]: 95% | remaining activity at 1 µM [14]: 116% | remaining activity at 100 µM [14]: 106% | remaining activity at 1 µM [15]: 102% | remaining activity at 100 µM [15]: 82% | Remaining protein kinase activity ([16]; 1 μM): 112% | Remaining protein kinase activity ([16]; 100 μM): 58% | remaining activity at 1 µM [17]: 128% | remaining activity at 100 µM [17]: 125%

COc1ccc2sc(-c3cncc(N)c3)nc2c1 [compound 1, 5-(5-Methoxybenzo[d]thiazol-2-yl)pyridin-3-amine]
remaining activity at 1 µM ([1]; CK1δ, 1 μM): 107% | remaining activity at 100 µM ([1]; CK1δ, 100 μM): 13% | remaining activity at 1 µM ([2]; HER4, 1 μM): 104% | remaining activity at 100 µM ([2]; HER4, 100 μM): 16% | Remaining protein kinase activity ([3]; 1 μM): 103% | Remaining protein kinase activity ([3]; 100 μM): 96% | remaining activity at 1 µM ([4]; SRPK1, 1 μM): 108% | remaining activity at 100 µM ([4]; SRPK1, 100 μM): 55% | remaining activity at 1 µM ([5]; MAPKAP-K3, 1 μM): 115% | remaining activity at 100 µM ([5]; MAPKAP-K3, 100 μM): 74% | Remaining protein kinase activity ([6]; 1 μM): 123% | Remaining protein kinase activity ([6]; 100 μM): 103% | remaining activity at 1 µM ([7]; MAPKAP-K2, 1 μM): 122% | remaining activity at 100 µM ([7]; MAPKAP-K2, 100 μM): 66% | remaining activity at 1 µM ([8]; MST4, 1 μM): 101% | remaining activity at 100 µM ([8]; MST4, 100 μM): 72% | remaining activity at 1 µM ([9]; HIPK3, 1 μM): 120% | remaining activity at 100 µM ([9]; HIPK3, 100 μM): 28% | remaining activity at 1 µM ([10]; ERK5, 1 μM): 66% | remaining activity at 100 µM ([10]; ERK5, 100 μM): 37% | remaining activity at 1 µM ([11]; PKA, 1 μM): 98% | remaining activity at 100 µM ([11]; PKA, 100 μM): 74% | remaining activity at 1 µM ([12]; MELK, 1 μM): 96% | remaining activity at 100 µM ([12]; MELK, 100 μM): 12% | remaining activity at 1 µM ([13]; MARK3, 1 μM): 98% | remaining activity at 100 µM ([13]; MARK3, 100 μM): 34% | remaining activity at 1 µM ([14]; MARK2, 1 μM): 112% | remaining activity at 100 µM ([14]; MARK2, 100 μM): 62% | remaining activity at 1 µM ([15]; SGK1, 1 μM): 99% | remaining activity at 100 µM ([15]; SGK1, 100 μM): 62% | Remaining protein kinase activity ([16]; 1 μM): 113% | Remaining protein kinase activity ([16]; 100 μM): 38% | remaining activity at 1 µM ([17]; BRSK2, 1 μM): 125% | remaining activity at 100 µM ([17]; BRSK2, 100 μM): 53%
